The NIST ThermoML archive (doi:10.1007/s10765-005-8089-2)
Numbers after ± are expanded uncertainties.

What was measured:
[1] = xn = mol fraction of the nth substance listed; settings: Liquid, Falling or rolling sphere viscometry, x1 = 1
[2] = Liquid

Structure (SMILES): CCO [ethanol] + Cc1ccccc1
- viscosity ([1]; 293.15 K, 100 kPa): 1.194 ± 0.026 mPa·s
- viscosity ([1]; 293.15 K, 20000 kPa): 1.344 ± 0.029 mPa·s
- viscosity ([1]; 293.15 K, 40000 kPa): 1.494 ± 0.032 mPa·s
- viscosity ([1]; 293.15 K, 60000 kPa): 1.647 ± 0.035 mPa·s
- viscosity ([1]; 293.15 K, 80000 kPa): 1.797 ± 0.039 mPa·s
- viscosity ([1]; 293.15 K, 100000 kPa): 1.955 ± 0.042 mPa·s
- viscosity ([1]; 313.15 K, 100 kPa): 0.826 ± 0.018 mPa·s
- viscosity ([1]; 313.15 K, 20000 kPa): 0.948 ± 0.02 mPa·s
- viscosity ([1]; 313.15 K, 40000 kPa): 1.059 ± 0.023 mPa·s
- viscosity ([1]; 313.15 K, 60000 kPa): 1.171 ± 0.025 mPa·s
- viscosity ([1]; 313.15 K, 80000 kPa): 1.282 ± 0.028 mPa·s
- viscosity ([1]; 313.15 K, 100000 kPa): 1.392 ± 0.03 mPa·s
- viscosity ([1]; 333.15 K, 100 kPa): 0.59 ± 0.013 mPa·s
- viscosity ([1]; 333.15 K, 20000 kPa): 0.683 ± 0.015 mPa·s
- viscosity ([1]; 333.15 K, 40000 kPa): 0.769 ± 0.017 mPa·s
- viscosity ([1]; 333.15 K, 60000 kPa): 0.851 ± 0.018 mPa·s
- viscosity ([1]; 333.15 K, 80000 kPa): 0.934 ± 0.02 mPa·s
- viscosity ([1]; 333.15 K, 100000 kPa): 1.015 ± 0.022 mPa·s
- viscosity ([1]; 353.15 K, 20000 kPa): 0.51 ± 0.011 mPa·s
- viscosity ([1]; 353.15 K, 40000 kPa): 0.574 ± 0.012 mPa·s
- viscosity ([1]; 353.15 K, 60000 kPa): 0.636 ± 0.014 mPa·s
- viscosity ([1]; 353.15 K, 80000 kPa): 0.699 ± 0.015 mPa·s
- viscosity ([1]; 353.15 K, 100000 kPa): 0.763 ± 0.016 mPa·s

Structure (SMILES): CCO [ethanol]
- viscosity ([2]; 293.15 K, 100 kPa, Falling or rolling sphere viscometry): 1.194 ± 0.026 mPa·s
- viscosity ([2]; 293.15 K, 20000 kPa, Falling or rolling sphere viscometry): 1.344 ± 0.029 mPa·s
- viscosity ([2]; 293.15 K, 40000 kPa, Falling or rolling sphere viscometry): 1.494 ± 0.032 mPa·s
- viscosity ([2]; 293.15 K, 60000 kPa, Falling or rolling sphere viscometry): 1.647 ± 0.035 mPa·s
- viscosity ([2]; 293.15 K, 80000 kPa, Falling or rolling sphere viscometry): 1.797 ± 0.039 mPa·s
- viscosity ([2]; 293.15 K, 100000 kPa, Falling or rolling sphere viscometry): 1.955 ± 0.042 mPa·s
- viscosity ([2]; 313.15 K, 100 kPa, Falling or rolling sphere viscometry): 0.826 ± 0.018 mPa·s
- viscosity ([2]; 313.15 K, 20000 kPa, Falling or rolling sphere viscometry): 0.948 ± 0.02 mPa·s
- viscosity ([2]; 313.15 K, 40000 kPa, Falling or rolling sphere viscometry): 1.059 ± 0.023 mPa·s
- viscosity ([2]; 313.15 K, 60000 kPa, Falling or rolling sphere viscometry): 1.171 ± 0.025 mPa·s
- viscosity ([2]; 313.15 K, 80000 kPa, Falling or rolling sphere viscometry): 1.282 ± 0.028 mPa·s
- viscosity ([2]; 313.15 K, 100000 kPa, Falling or rolling sphere viscometry): 1.392 ± 0.03 mPa·s
- viscosity ([2]; 333.15 K, 100 kPa, Falling or rolling sphere viscometry): 0.59 ± 0.013 mPa·s
- viscosity ([2]; 333.15 K, 20000 kPa, Falling or rolling sphere viscometry): 0.683 ± 0.015 mPa·s
- viscosity ([2]; 333.15 K, 40000 kPa, Falling or rolling sphere viscometry): 0.769 ± 0.017 mPa·s
- viscosity ([2]; 333.15 K, 60000 kPa, Falling or rolling sphere viscometry): 0.851 ± 0.018 mPa·s
- viscosity ([2]; 333.15 K, 80000 kPa, Falling or rolling sphere viscometry): 0.934 ± 0.02 mPa·s
- viscosity ([2]; 333.15 K, 100000 kPa, Falling or rolling sphere viscometry): 1.015 ± 0.022 mPa·s
- viscosity ([2]; 353.15 K, 20000 kPa, Falling or rolling sphere viscometry): 0.51 ± 0.011 mPa·s
- viscosity ([2]; 353.15 K, 40000 kPa, Falling or rolling sphere viscometry): 0.574 ± 0.012 mPa·s
- viscosity ([2]; 353.15 K, 60000 kPa, Falling or rolling sphere viscometry): 0.636 ± 0.014 mPa·s
- viscosity ([2]; 353.15 K, 80000 kPa, Falling or rolling sphere viscometry): 0.699 ± 0.015 mPa·s
- viscosity ([2]; 353.15 K, 100000 kPa, Falling or rolling sphere viscometry): 0.763 ± 0.016 mPa·s

Structure (SMILES): CO [methanol]
- viscosity ([2]; 293.15 K, 100 kPa, Capillary tube (Ostwald / Ubbelohde) method): 0.583 ± 0.012 mPa·s
- viscosity ([2]; 293.15 K, 20000 kPa, Capillary tube (Ostwald / Ubbelohde) method): 0.646 ± 0.014 mPa·s
- viscosity ([2]; 293.15 K, 40000 kPa, Capillary tube (Ostwald / Ubbelohde) method): 0.706 ± 0.015 mPa·s
- viscosity ([2]; 293.15 K, 60000 kPa, Capillary tube (Ostwald / Ubbelohde) method): 0.767 ± 0.016 mPa·s
- viscosity ([2]; 293.15 K, 80000 kPa, Capillary tube (Ostwald / Ubbelohde) method): 0.83 ± 0.017 mPa·s
- viscosity ([2]; 293.15 K, 100000 kPa, Capillary tube (Ostwald / Ubbelohde) method): 0.894 ± 0.019 mPa·s
- viscosity ([2]; 313.15 K, 100 kPa, Capillary tube (Ostwald / Ubbelohde) method): 0.445 ± 0.009 mPa·s
- viscosity ([2]; 313.15 K, 20000 kPa, Capillary tube (Ostwald / Ubbelohde) method): 0.497 ± 0.011 mPa·s
- viscosity ([2]; 313.15 K, 40000 kPa, Capillary tube (Ostwald / Ubbelohde) method): 0.546 ± 0.012 mPa·s
- viscosity ([2]; 313.15 K, 60000 kPa, Capillary tube (Ostwald / Ubbelohde) method): 0.593 ± 0.013 mPa·s
- viscosity ([2]; 313.15 K, 80000 kPa, Capillary tube (Ostwald / Ubbelohde) method): 0.64 ± 0.013 mPa·s
- viscosity ([2]; 313.15 K, 100000 kPa, Capillary tube (Ostwald / Ubbelohde) method): 0.683 ± 0.014 mPa·s
- viscosity ([2]; 333.15 K, 100 kPa, Capillary tube (Ostwald / Ubbelohde) method): 0.343 ± 0.007 mPa·s
- viscosity ([2]; 333.15 K, 20000 kPa, Capillary tube (Ostwald / Ubbelohde) method): 0.386 ± 0.008 mPa·s
- viscosity ([2]; 333.15 K, 40000 kPa, Capillary tube (Ostwald / Ubbelohde) method): 0.424 ± 0.009 mPa·s
- viscosity ([2]; 333.15 K, 60000 kPa, Capillary tube (Ostwald / Ubbelohde) method): 0.462 ± 0.01 mPa·s
- viscosity ([2]; 333.15 K, 80000 kPa, Capillary tube (Ostwald / Ubbelohde) method): 0.501 ± 0.011 mPa·s
- viscosity ([2]; 333.15 K, 100000 kPa, Capillary tube (Ostwald / Ubbelohde) method): 0.543 ± 0.011 mPa·s
- viscosity ([2]; 353.15 K, 20000 kPa, Capillary tube (Ostwald / Ubbelohde) method): 0.303 ± 0.007 mPa·s
- viscosity ([2]; 353.15 K, 40000 kPa, Capillary tube (Ostwald / Ubbelohde) method): 0.337 ± 0.007 mPa·s
- viscosity ([2]; 353.15 K, 60000 kPa, Capillary tube (Ostwald / Ubbelohde) method): 0.368 ± 0.008 mPa·s
- viscosity ([2]; 353.15 K, 80000 kPa, Capillary tube (Ostwald / Ubbelohde) method): 0.4 ± 0.009 mPa·s
- viscosity ([2]; 353.15 K, 100000 kPa, Capillary tube (Ostwald / Ubbelohde) method): 0.433 ± 0.009 mPa·s
